# B1: BDNF: brain-derived neurotrophic factor (protein, UniProt P23560 19-247, looked up)
# Neurotrophic factor BDNF …: APMKEANIRGQGGLAYPGVRTHGTLESVNGPKAGSRGLTSLADTFEHVIEELLDEDQKVRPNEENNKDADLYTSRVMLSSQVPLEPPLLFLLEEYKNYLDAANMSMRVRRHSDPARRGELSVCDSISEWVTAADKKTAVDMSGGTVTVLEKVPVSKGQLKQYFYETKCNPMGYTKEGCRGIDKRHWNSQCRTTQSYVRALTMDSKKRIGWRFIRIDTSCVCTLTIKRGR
# How the values were obtained:
# [1] = MP-catalyzed peroxynitrite decomposition monitored at 302 nm; assay type: biochemical; settings: for Rate Constants for MP-Catalyzed Decomposition of Peroxynitrite (pH 7.4, 37° C.): 100 μM peroxynitrite, absence of added reductants
# Description: Peroxynitrite (100 μM) was added to rapidly stirred cuvettes at 37° C. containing the indicated concentrations of MPs in 0.1 M potassium phosphate, pH 7.4. Ascorbate was added to 150 μM where indicated. Peroxynitrite decomposition was monitored at 302 nm using a Hewlett-Packard diode-array spectrophotometer. Apparent rates (kapparents^−1, average of n=3) were plotted versus MP concentration to determine rate constants in M^−1s^−1.
# Reactions contained the indicated concentration of FeTCPPin 1.4 ml of 0.1 M potassium phosphate, pH 7.4 in the absence or presence to 150 μM ascorbic acid. Peroxynitrite (100 μM) was added to rapidly stirred cuvettes at 37° C. and the decay of peroxynitrite was monitored continuously at 302 nm. Decay data were fitted to the equation describing first order decay to obtain apparent decay rates (kapparent sec^−1). Apparent decay rates as a function of FeTCPP were fitted by linear regression and the rate constant was obtained slope of the line.
# Peroxynitrite (100 μM) decomposition was determined at 302 nm using a Hewlett-Packard diode-array spectrophotometer fitted with a temperature-controlled cuvette chamber and a water-driven cuvette stirrer. Bolus additions of peroxynitrite were made to vigorously stirred cuvettes containing varying concentrations of MPs (see Table III) while data were collected at a rate of ten points/sec. […] Each reaction was repeated three times and only the first additions of peroxynitrite were averaged. Data were exported for fitting and plotting. Apparent rates of peroxynitrite decomposition were plotted as a function of metalloporphyrin concentration (as shown in FIG. 5) to determine concentration-independent rate constants at 37° C.
# Rates of peroxynitrite (100 μM) decomposition were determined at different MP concentrations. Ascorbate was added to 150 μM where indicated. […] Apparent rate constants were plotted versus MP concentration (as in FIG. 5A,B) to determine true rate constants in M^−1s^−1±standard error.
# [2] = Peroxynitrite-mediated nitration of GYA peptide; assay type: biochemical; settings: 2 mM GYA; for enhancement of nitration yield: 10 μM MP or SOD subunit, 1 mM CO2, pH 7.4, 37° C.; for effect on nitration: 10 μM MP, pH 7.4
# Description: Nitration efficiency, defined as the moles of nitrated GYA peptide formed per mole of peroxynitrite added, was determined at a fixed concentration of 10 μM MP or Cu,Zn SOD subunit, or 1 mM CO2 as described below. Increasing amounts of peroxynitrite were added in a sequential manner in order to determine whether nitration efficiency varied with concentration and to determine whether nitration catalysis was maintained with multiple additions (see INSET). Nitration efficiency was calculated for each peroxynitrite addition; the values shown are the average of all nine peroxynitrite additions. Absorbance changes were monitored simultaneously at 380, 430, and 460 nm.
# (§1) For nitration of GYA peptide (see FIG. 6), reaction solutions contained 2 mM GYA and 10 μM of the indicated MP in 1.4 ml of 0.1 M potassium phosphate, pH 7.4 at 37° C. Comparisons with two previously characterized nitration catalysts, human Cu,Zn superoxide dismutase (hCu,Zn SOD) and carbon dioxide, were made using 10 μM of SOD subunit and 25 mM potassium bicarbonate, respectively, which was pH-adjusted to 7.4. This level of bicarbonate results in rapid saturation of the solution with carbon dioxide (˜1 mM). Solutions were placed into a rapidly stirred cuvette and nine bolus additions (50 μM×3, 100 μM×3, and 200 μM×3) of peroxynitrite were made sequentially while the absorbance was monitored. Increasing amounts of peroxynitrite were added in a sequential manner in order to determine whether nitration efficiency varied with concentration and to determine whether nitration catalysis was maintained with multiple additions (see FIG. 6 inset). Nitration efficiency was defined as the amount of nitropeptide formed per amount of peroxynitrite added and was calculated for each peroxynitrite addition; the values shown are the average of all nine peroxynitrite additions. The absorbance changes associated with nitrotyrosine peptide production were monitored simultaneously at 380, 430, and 460 nm. The extinction coefficients for nitrated GYA at pH 7.4 are 4,400 M^−1cm^−1 at 430 nm and 2,200 M^−1cm^−1 at both 380 and 460 nm. […] Wavelengths used to quantify nitrotyrosine production were chosen to minimize interference by the particular metalloporphyrin used. Experiments using HPA as a nitration target (FIG. 7) contained 8 mM HPA in either 0.1 M potassium phosphate, pH 7.4 or 0.1 M sodium borate, pH 9.1.
# The relative abilities of several MPs to enhance nitration of the tripeptide GYA was compared using 10 μM MP and sequential bolus additions of 50 μM (×3), 100 μM (×3), and 200 μM (×3)peroxynitrite (FIG. 6, inset).
# [3] = Ascorbate oxidation by MPs monitored at 266 nm; assay type: biochemical; settings: MP 10 μM, 50 μM ascorbate, 0.1 M potassium phosphate pH 7.4, ± standard error, n=3
# Description: In order to test the hypothesis that Mn(II)- or Fe(II)-porphyrins would be capable of carrying out two-electron reductions of peroxynitrite and thereby decreasing rather than increasing its reactivity, attempts were made to pre-reduce these transition metal-containing MPs prior to addition of peroxynitrite.
# Table V. Ascorbate oxidation by MPs. MPs (10 μM) were added to stirred cuvettes containing 0.1 M potassium phosphate, pH 7.4 and 50 μM ascorbate. Ascorbate oxidation was monitored at 266 nm (ηm=17,700 M^−1cm^−1). Oxidation rates (±standard errors) were determined by fitting the initial linear portion of each curve and averaging the rates (n=3).
# [4] = MP-catalyzed nitration of HPA: effect of pH, reductants and serum; assay type: biochemical
# Description: Single additions of 100 μM peroxynitrite were made to reactions containing ascorbate or GSH. Three sequential additions of 100 μM peroxynitrite were made to all other reactions.
# as §1, with “This” for “For nitration of GYA peptide (see FIG. 6), reaction solutions contained 2 mM GYA and 10 μM of the indicated MP in 1.4 ml of 0.1 M potassium phosphate, pH 7.4 at 37° C. Comparisons with two previously characterized nitration catalysts, human Cu,Zn superoxide dismutase (hCu,Zn SOD) and carbon dioxide, were made using 10 μM of SOD subunit and 25 mM potassium bicarbonate, respectively, which was pH-adjusted to 7.4. This”
# cultured motor neurons = assay: Protection of cultured motor neurons from growth factor withdrawal; assay type: cell-based; settings: for level of protection compared with FeTCPP: 72 hr after trophic factor deprivation
# Description: Culture Motor neurons were prepared from embryonic day 15 (E15) rat spinal cords by a combination of metrizamide gradient centrifugation and immunopanning with the monoclonal antibody IgG192 (Chandler et al., J. Biol. Chem. 259:6882-6889, 1984) as previously described (Estevez et al., J Neurosci 18:923-931, 1998; Henderson C E, Bloch-Gallego E, Camu W (1995): Purification and culture of embryonic motorneurons. In Cohen J, Wilkin G (eds): Neural Cell Culture: A Practical Approach. Oxford, England: IRL Press, pp 69-81). Long-term cultures of motor neurons were performed as described by Pennica et al. (Pennica et al., Neuron 17:63-74, 1996). Briefly, motor neurons were plated at a density of 200 cells/cm2 on 35 mm dishes precoated with polyornithine-laminin in Neurobasal medium supplemented with B27 (Life Technologies, Grand Island, N.Y.), 2% horse serum, 0.5 mM L-glutamine, 25 μM 2-mercaptoethanol and 25 μM L-glutamate. Every 3-4 days ¾ of the culture medium was replaced by fresh medium lacking L-glutamate and containing sufficient quantities of BDNF or FeTCPP to supplement the 2 ml of medium in the dish. More than 94% of the cells were immunoreactive for the p75 low-affinity neurotrophic receptor (p75NTR) and Islet ½, which are markers for motor neurons. The experiments were repeated at least 2 times using the same lot of Neurobasal medium and B 27 supplement.
# The number of motor neurons with neurites longer than 4 soma diameters present in parallel cultures treated with BDNF at a final concentration of 100 pg/ml 24 h after plating or culture media replacement was considered 100% motor neuron survival. FeTCPP was resuspended in complete Neurobasal medium at a 5 mM concentration. Dilutions were performed of the stock solution to add 20 μl per dish.
# Rat motor neurons survive many days in culture when brain-derived neurotrophic factor (BDNF) is added to the culture media. Because motor neurons are the cells that preferentially die in ALS, primary cultures of motor neurons represent the best non-animal model of ALS. Withdrawal of BDNF results in apoptotic death of >70% of motor neurons within 24 h. Cell death was correlated with expression of the neuronal form of nitric oxide synthase (nNOS) and the production of peroxynitrite, as evidenced by protein tyrosine nitration. When FeTCPP is added to the culture media in place of BDNF and motor neuron survival is assessed at 24 h, some protection is seen at concentrations as low as 0.01 μM (FIG. 10A). […] Additionally, a comparison of the effect of FETCPP and its tetra-methyl ester derivative, TMeO-FeTCPP, on motor neuron survival at 72 hr.
# [5] = system: ALS-SOD1 (G93A) transgenic mice; assay: Survival of ALS-SOD1 (G93A) transgenic mice; assay type: in vivo; settings: G93A mutant of Cu,Zn superoxide dismutase transgene
# Description: FIG. 13A: Transgenic mice (n=9) were injected intraperitoneally with 3 mg/kg/day of a low molecular weight (844.6) synthetic iron porphyrin. […] Treatment was continued until such time that signs of diaphragm weakness (labored breathing) necessitated sacrifice. A control group of transgenic mice was treated with vehicle only (phosphate-buffered saline). FIG. 13B: Transgenic mice were injected intraperitoneally with 1 mg/kg/day of a low molecular weight (844.6) synthetic iron porphyrin. Treatment began at day 60 prior to the onset of symptoms. A control group of transgenic mice was treated with vehicle only (phosphate-buffered saline).
# Mice transgenic for the G93A mutated form of SOD1 are generally accepted as the standard model of motor neuron disease. […] This compound extended the mean survival time by 13 days (from 127 to 140 days) (FIG. 13A).
# A group of G93A mice was treated with 1 mg/kg of FeTCPP intraperitoneally beginning at 60 days of age. As with the control group in FIG. 13A, none of the control group in this test survived past 132 days. However, the probability of survival at 140 days was about 37% and at approximately 180 days survival was still at 20%.
molecule,measurement,setting,value
Iron (III) meso-tetra-(4-sulfonatophenyl)-porphyrin [FeTSPP],"Rate Constants for MP-Catalyzed Decomposition of Peroxynitrite (pH 7.4, 37° C.)",[1],3.3 × 10^5 ± 0.4 M^−1s^−1
same,enhancement of nitration yield,[2],5.3 fold
same,Rate of Ascorbate Oxidation,[3],4.58 ± 0.21 µM/min
same,enhancement of nitration yield at pH 9.1,"[4]; 8 mM HPA, 10 μM MP, 0.1 M sodium borate pH 9.1, versus non-catalyzed",2.8 fold
same,effect of ascorbate and GSH on nitration enhancement,[4]; concentrations which eliminated non-catalyzed nitration,largely prevented the enhancement of nitration
same,effect of serum on nitration enhancement,[4]; fresh human serum 1:10 added prior to peroxynitrite,largely eliminated the nitration enhancement
"O=C(O)c1ccc(-c2c3nc(c(-c4ccc(C(=O)O)cc4)c4ccc([n-]4)c(-c4ccc(C(=O)O)cc4)c4nc(c(-c5ccc(C(=O)O)cc5)c5ccc2[n-]5)C=C4)C=C3)cc1.[Zn+2] [ZnTBAP, Zinc (II) tetra-(4-benzoic acid)-porphyrin]","Rate Constants for MP-Catalyzed Decomposition of Peroxynitrite (pH 7.4, 37° C.)",[1],5.3 × 10^3 ± 0.3 M^−1s^−1
same,effect on nitration,[2],small but reproducible inhibitory effect
O=C=O [carbon dioxide],enhancement of nitration yield,[2],1.7 fold
"O=C1O[C@H]([C@@H](O)CO)C(O)=C1O [ascorbate, ascorbic acid]",acceleration of peroxynitrite decomposition,"[1]; ascorbate alone 150 μM, no MP",16%
"Iron (III) meso 5,10,15,20-tetrakis-(4-carboxymethyl-phenyl) porphyrin [FeTMeO-TCPP]",survival of cultured motor neurons deprived of growth factors,cultured motor neurons,prolong survival of cultured motor neurons
same,level of protection compared with FeTCPP,cultured motor neurons; 0.01 μM,twice the level of protection
same,level of protection compared with FeTCPP,cultured motor neurons; 0.1 μM,slightly greater level of protection
same,progression of motor neuron death in mice,[5],slow the progression of motor neuron death
Copper (II) meso-tetra-(4-sulfonatophenyl)-porphyrin [CuTSPP],effect on nitration,[2],small but reproducible inhibitory effect
B1,motor neurons that die between day 8 and day 16,cultured motor neurons; long-term culture in the presence of BDNF,80%

# — patent US6372727B1, “Metalloporphyrin treatment of neurologic disease” (UAB Research Foundation, priority 1999, dated 2002)
